For one assay, the system named is HCMV strain AD169. Put plainly: HCMV plaque formation assay in MRC-5 cells. The assay is classed as cell-based. As to conditions: 10 micrograms per ml, 7-10 days. The source says: Cells were split twic a week 1:2.
Ganciclovir was used as positive control.

A further assay concerns HUVEC. Put plainly: Endothelial tube formation assay. The class given is cell-based, human. As to conditions: 10 micrograms per ml, 20 hours. The source says:
[…] control wes vehicle only. […] Raw data were expressed as average tubule lenghs in pixels±standard deviation.

Assay [1] has as its system hepatitis B virus (HBV) ayw strain. Description: HBV experimental assay system, secreted HBV DNA by TaqMan PCR. The class given is cell-based. Conditions: 10 micrograms per ml; HepG2-2.2.15 cells; six days.
The next assay deals with Streptococcus pneumoniae. Description: Streptococcus pneumoniae growth assay. The assay is classed as cell-based. Conditions: 10 micrograms per ml; 5×10^5 CFU/mL.
The test system of a further assay is murine spleen cells. Put plainly: Th1/Th2 cytokine profiling assay in Ovalbumin-restimulated spleen cells. As to conditions: 10 micrograms per ml, Ovalbumin restimulation, 72 hours. The assay is classed as cell-based, Balb/c mice.
For assay [2], the system named is Primary Human endothelial cells (HUVEC). Put plainly: Endothelial cell migration assay. The assay is classed as cell-based. As to conditions: 10 micrograms per ml, 22 hours. How it is done:
Thereafter, designated concentration of testing peptides—10 micrograms per ml—was added in duplicate wells.

A further assay relates to HIV-1IIIB. Description: HIV-1 antiviral assay in CEM-SS cells (MTS readout).

Where no end group is shown, it is not given here.

In the case of “Tyr-Ser-Ala-Tyr-Pro-Asp-Ser-Val-Pro-Met-Met-Ser-OH [Peptide 1]”, the “inhibition of HCMV plaque formation as compared to the virus control” value in the assay on HCMV strain AD169 is recorded as “did not inhibit”. Besides, in the assay with HUVEC, the “inhibition of the tube formation of human endothelial cells” value worked out at 4%. The “inhibition of HBV replication as compared to the virus control infection” value in assay [1] turned out to be 51.1%. Further, the “inhibition of the growth of Streptococcus pneumoniae” value in the assay with Streptococcus pneumoniae is 100%. In the assay with murine spleen cells, the “change of the production of IFN-γ” value is on record as “did not significantly change”, the “change of the production of IL-5” value was “did not significantly change”, the “change of the production of TNF-a” value was “did not significantly change” and the “induction (increase) of the production of IL-2” value is recorded as 82.2%. The “induction (increase) of the production of IL-4” value in the assay on murine spleen cells is 74.3%. Further, the “increase of the migration of human endothelial cells” value in assay [2] was found to be 4%.
Turning to `Cc1cn([C@H]2C[C@H](N=[N+]=[N-])[C@@H](CO)O2)c(=O)[nH]c1=O` [AZT], the “antiviral activity of positive control compounds (HIV-1)” value in the assay with HIV-1IIIB is “expected levels of antiviral activity”.
Regarding “Trp-Met-Asn-Ser-Thr-Gly-Phe-Thr-Lys-Val-Cys-Gly-Ala-Pro-Pro-Cys-OH (WMNSTGFTKVCGAPPC-OH; cysteine pairing not given here) [Peptide 2]”, in the assay with HCMV strain AD169, the “inhibition of HCMV plaque formation as compared to the virus control” value is “did not inhibit”. In the assay on HUVEC, the “inhibition of the tube formation of human endothelial cells” value worked out at 8%. The “inhibition of HBV replication as compared to the virus control infection” value in assay [1] is reported as 53.2%. Besides, the “inhibition of the growth of Streptococcus pneumoniae” value in the assay on Streptococcus pneumoniae worked out at 100%. For the same molecule, in the assay on murine spleen cells, the “change of the production of IFN-γ” value was “did not significantly change”, the “change of the production of IL-5” value is “did not significantly change”, the “change of the production of TNF-a” value is on record as “did not significantly change” and the “induction (increase) of the production of IL-2” value is 92.6%. Further, the “induction (increase) of the production of IL-4” value with murine spleen cells was found to be 87.3%. Further, the “increase of the migration of human endothelial cells” value in assay [2] is 7%.
As for `CC(C)(C)NC(=O)[C@@H]1CN(Cc2cccnc2)CCN1C[C@@H](O)C[C@@H](Cc1ccccc1)C(=O)N[C@H]1c2ccccc2C[C@H]1O` [indinavir], in the assay with HIV-1IIIB, the “antiviral activity of positive control compounds (HIV-1)” value is on record as “expected levels of antiviral activity”.

The values above are taken from patent publication US20100204132A1, “[…] USES OF PEPTIDES […] and […]” (priority 2007, published 2010).
